Patent publication US20080319000A1, “Use of 3,1IB-Cis-Dihydrotetrabenazine for the Treatment of Symptoms of Huntingtons Disease” (CAMBRIDGE LABORATORIES (IRELAND) LIMITED, priority 2005, published 2008)

Legend:
Male Sprague-Dawley rats = experiment: Spontaneous locomotor activity in rats (sedative properties); assay type: in vivo; conditions: for Inactivity Duration / Large movements Duration / Large movements Occurrence: rats, 20 min period, mean ± SEM n=12
Description: A study was carried out in rats to determine whether the dihydrotetrabenazine isomers of the invention have sedative properties. […] Male Sprague-Dawley rats, (Charles River Laboratories, Saint-Germain/L'Arbresle, France), weighing 200-250 g at the beginning of the study, were used for the studies. […] The rats were allowed to acclimatize to their conditions for at least five days before commencement of the study. The rats received food ([…], France, ref. 811002) and water (tap water in water bottle) ad libitum. Solutions of each test compound in corn oil were freshly prepared on the day of the experiment. Haloperidol was prepared in hydroxyethylcellulose, 0.5% in deionized water. Either the vehicle or the test compounds were administered as a single dose (0.3, 1, 3 and 10 mg/kg, 2 mL/kg i.p.). The reference compound haloperidol (1 mg/kg) was administered i.p. […] The animals were placed in plexiglass cages under a video camera in a room with low light intensity (maximum 50 lux). At forty five minutes and 3 hours after administration, locomotor activity was determined during 20 minute periods using a video image analyzer (Videotrack, View Point, France). […] The number and duration of ambulatory movements and duration of inactivity was measured. At the end of the locomotor activity measurement (45 minutes and 3 hours), palpebral closure and arousal were be scored as follows in the plexiglass cage: […] Image tracking was performed using a video camera placed above the plexiglass cage, recording overall locomotor activity. […] The results were expressed as the means ±SEMs of the 12 individual values. Statistical analyses were carried out using ANOVA (one way) and Dunnett's t-test and with the non parametric test of Kruskal-Wallis followed by a Mann & Whitney U-test for the sedation cotation. A p value of p<0.05 was taken as indicating significance. Group size n=12 Group 1: Reference, haloperidol (1 mg/kg i.p.) Group 2: Vehicle control group (2 ml/kg i.p.) Group 3: tetrabenazine (0.3 mg/kg i.p) Group 4: tetrabenazine (1 mg/kg i.p) Group 5: tetrabenazine (3 mg/kg i.p) Group 6: tetrabenazine (10 mg/kg i.p) Group 7: […]

VMAT1 = biological target: T1, VMAT1 (Homo sapiens, UniProt P54219); experiment: VMAT1 affinity; assay type: binding
T1 sequence (P54219 1-525): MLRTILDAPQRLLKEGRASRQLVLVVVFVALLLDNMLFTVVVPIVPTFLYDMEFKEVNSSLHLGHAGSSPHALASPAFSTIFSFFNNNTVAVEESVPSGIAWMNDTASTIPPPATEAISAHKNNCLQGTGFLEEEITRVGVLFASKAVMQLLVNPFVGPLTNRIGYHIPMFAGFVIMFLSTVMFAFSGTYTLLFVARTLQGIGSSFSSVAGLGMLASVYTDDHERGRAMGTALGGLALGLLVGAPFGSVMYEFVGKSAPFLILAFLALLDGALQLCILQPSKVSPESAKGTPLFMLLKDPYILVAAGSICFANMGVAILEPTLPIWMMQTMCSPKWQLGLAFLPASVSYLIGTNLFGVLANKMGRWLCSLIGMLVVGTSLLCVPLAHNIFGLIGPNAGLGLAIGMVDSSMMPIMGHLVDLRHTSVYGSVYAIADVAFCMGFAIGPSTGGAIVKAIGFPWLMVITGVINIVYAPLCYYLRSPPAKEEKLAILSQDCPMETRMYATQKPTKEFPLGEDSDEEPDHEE

[1] = 0.3 mg/kg i.p., 45 minutes after administration
[2] = 0.3 mg/kg i.p., 3 hours after administration
[3] = 1 mg/kg i.p., 45 minutes after administration
[4] = 1 mg/kg i.p., 3 hours after administration
[5] = 3 mg/kg i.p., 45 minutes after administration
[6] = 3 mg/kg i.p., 3 hours after administration
[7] = 10 mg/kg i.p., 45 minutes after administration
[8] = 10 mg/kg i.p., 3 hours after administration

## COc1cc2c(cc1OC)C1CC(=O)C(CC(C)C)CN1CC2 (racemic) [tetrabenazine, 1,3,4,6,7,11b-hexahydro-9,10-dimethoxy-3-(2-methylpropyl)-2H-benzo(a)quinolizin-2-one]
Male Sprague-Dawley rats; locomotor studies carried out on rats
  sedative effect: dose related sedative effect
Male Sprague-Dawley rats; [1]
  Inactivity Duration: 390.4 ± 37.4 s
  Large movements Duration: 66.8 ± 10.7 s
  Large movements Occurrence: 253 ± 32
Male Sprague-Dawley rats; [2]
  Inactivity Duration: 545.9 ± 37.1 s
  Large movements Duration: 24.3 ± 4.2 s
  Large movements Occurrence: 96 ± 14
Male Sprague-Dawley rats; [3]
  Inactivity Duration: 456.5 ± 50.5 s
  Large movements Duration: 46.5 ± 8.6 s
  Large movements Occurrence: 189 ± 32
Male Sprague-Dawley rats; [4]
  Inactivity Duration: 556.9 ± 31.1 s
  Large movements Duration: 21.5 ± 4.0 s
  Large movements Occurrence: 90 ± 16
Male Sprague-Dawley rats; [5]
  Inactivity Duration: 697.8 ± 39.7 s
  Large movements Duration: 8.7 ± 5.9 s
  Large movements Occurrence: 38 ± 25
Male Sprague-Dawley rats; [6]
  Inactivity Duration: 729.9 ± 26.8 s
  Large movements Duration: 1.7 ± 0.9 s
  Large movements Occurrence: 9 ± 4
Male Sprague-Dawley rats; [7]
  Inactivity Duration: 723.1 ± 46.5 s
  Large movements Duration: 0.2 ± 0.2 s
  Large movements Occurrence: 1 ± 1
Male Sprague-Dawley rats; [8]
  Inactivity Duration: 762.1 ± 40.7 s
  Large movements Duration: 0.6 ± 0.3 s
  Large movements Occurrence: 3 ± 1
Male Sprague-Dawley rats; rats, 0.3, 1, 3 and 10 mg/kg i.p., 45 minutes and 3 hours after administration
  sedative effect: dose-dependent sedative effect
VMAT1
  affinity for VMAT1: only a low affinity
